Laboratory results taken from patent US10856562B2, “Flavor composition and edible compositions containing same” (MARS, INCORPORATED, priority 2013, dated 2020).
Square brackets hold non-standard residues; d marks the D form. Ends that are not written are not given here. pGlu = O=C1CC[C@@H](C(=O)O)N1

Test system: panelists
Experiment: Attribute perception scores of flavor enhancers in solution (Example 6)
Assay type: in vivo, human
Set-up: key to Metallic / Numbing / Atringent / Salt / Sweet / Sour / Bitter / Umami / Sour, mean evaluation score in solution / Numbing, mean evaluation score in solution / Astringent / Umami FF: 15-point intensity scale, 0 = none, 15 = very strong
Conditions: for Astringent / Bitter / Flinty/Mineral / Metallic / Numbing / Salt / Sour / Sweet / Umami / Umami FF / Atringent / Mineral/Flinty / Umami/brothy: solution
Method: Descriptive attributes (e.g., taste, flavor and chemical feeling factors) of three use levels of pGlu-Cys (FE-35), pGlu-Cys-Gly (FE-36), pGlu-Cys-Cys (FE-37), pGlu-Cys-Val (FE-38) and pGlu-Val-Cys (UE-30) flavor composition peptides were determined. The three use levels were as follows: 1.0 ppb, 10.0 ppb and 100.0 ppb.
Data was collected for the attributes of the product in-mouth for the use levels according to the following protocol: • The samples were analyzed for flavor by six to nine members of a panel, trained and experienced in flavor evaluation using the Spectrum™ method. Samples were evaluated across multiple panel sessions. • The strength of each attribute was rated on a 15-point scale, where 0=none and 15=very strong. • This scale incorporates the ability to use tenths of a point and therefore has the potential of 150 scale differentiations. • The scale may be expanded beyond 15 points to include extreme ratings if necessary.
A summary of the concentrations of NaCl, water and flavor composition peptides in the solution samples is described in table 24.
The panelists evaluated each sample for the attributes described by table 25.

[1] = 10.0 ppb, mean evaluation score
[2] = 100.0 ppb, mean evaluation score
[3] = Concentration 1, MAX, 15-point scale
[4] = Concentration 1, MEAN, 15-point scale
[5] = Concentration 1, MIN, 15-point scale
[6] = Concentration 10, MAX, 15-point scale
[7] = Concentration 10, MEAN, 15-point scale
[8] = Concentration 10, MIN, 15-point scale
[9] = Concentration 100, MAX, 15-point scale
[10] = Concentration 100, MEAN, 15-point scale
[11] = Concentration 100, MIN, 15-point scale

[pGlu]-Cys-Cys (cysteine pairing not given here) [FE-37]
3.5: Salt [6]
1.0: Mineral/Flinty [6] | Umami/brothy [6] | Sweet [9] | Umami/brothy [9]
increases very slightly by 100 ppb: Umami feeling factor in solution as the concentration increases (1.0 to 100 ppb)
2.5: Umami [6] | Salt [8]
1.6: Umami FF [2] | Umami [10]
00: Bitter [3]
0.9: Flinty/Mineral [2] | Mineral/Flinty [10]
0.2: Umami [1] | Sweet [2] | Umami/brothy [7] | Sweet [10]
3.0: Salt [1] | Salt [7] | Umami [9]
shows no distinct pattern: Salt perception level in solution as the concentration increases (1.0 to 100 ppb)
0.7: Flinty/Mineral (1.0 ppb, mean evaluation score) | Mineral/Flinty [4]
2.8: Salt [2] | Salt [3] | Salt [10]
1.5: Mineral/Flinty [3] | Mineral/Flinty [9] | Salt [11]
2.4: Salt (1.0 ppb, mean evaluation score) | Salt [4]
0.1: Umami (1.0 ppb, mean evaluation score) | Sweet [1] | Metallic [2] | Umami/brothy [4] | Sweet [7] | Metallic [10]
0.0: Astringent (1.0 ppb, mean evaluation score) | Bitter (1.0 ppb, mean evaluation score) | Metallic (1.0 ppb, mean evaluation score) | Numbing (1.0 ppb, mean evaluation score) | Sour (1.0 ppb, mean evaluation score) | Sweet (1.0 ppb, mean evaluation score) | Astringent [1] | Bitter [1] | Metallic [1] | Numbing [1] | Sour [1] | Astringent [2] | Bitter [2] | Numbing [2] | Sour [2] | Atringent [3] | Metallic [3] | Numbing [3] | Sour [3] | Sweet [3] | Atringent [4] | Bitter [4] | Metallic [4] | Numbing [4] | Sour [4] | Sweet [4] | Atringent [5] | Bitter [5] | Metallic [5] | Mineral/Flinty [5] | Numbing [5] | Sour [5] | Sweet [5] | Umami [5] | Umami/brothy [5] | Atringent [6] | Bitter [6] | Metallic [6] | Numbing [6] | Sour [6] | Atringent [7] | Bitter [7] | Metallic [7] | Numbing [7] | Sour [7] | Atringent [8] | Bitter [8] | Metallic [8] | Mineral/Flinty [8] | Numbing [8] | Sour [8] | Sweet [8] | Umami [8] | Umami/brothy [8] | Atringent [9] | Bitter [9] | Numbing [9] | Sour [9] | Atringent [10] | Bitter [10] | Numbing [10] | Sour [10] | Atringent [11] | Bitter [11] | Metallic [11] | Mineral/Flinty [11] | Numbing [11] | Sour [11] | Sweet [11] | Umami [11] | Umami/brothy [11]
0.8: Flinty/Mineral [1] | Umami/brothy [3] | Sweet [6] | Mineral/Flinty [7] | Metallic [9]
4.5: Salt [9]
2.0: Umami [3] | Salt [5]
1.3: Umami FF (1.0 ppb, mean evaluation score) | Umami FF [1] | Umami [4] | Umami [7]
increase very slightly: Mineral/Flinty aromatic in solution as the concentration increases (1.0 to 100 ppb) | Umami aromatic in solution as the concentration increases (1.0 to 100 ppb) | Umami feeling factor in solution as the concentration increases (1.0 to 100 ppb, listed as FE 37)
0.5: Umami [2] | Umami/brothy [10]
